Test results published in patent US12351652B2, “Hemagglutinin-binding peptide” (priority 2019, dated 2025).
*1 amine or outer side, *2 acyl side, *3 side chain or, on linkers, in order; H or OH if unused. Where a SMILES comes first, the peptide text is derived from it. Bridges are numbered along the chain shown (N, C = ends). [ ]: non-standard residue; d: D form. The star is where a group is joined. Ethylenediamine = C(CN[*:2])N[*:1]; Hyp = O=C(O)[C@@H]1C[C@@H](O)CN1; NMeF = CN[C@@H](Cc1ccccc1)C(=O)O; Decanoyl = CCCCCCCCCC(=O)*; NMeA = CN[C@@H](C)C(=O)O; Sar = CNCC(=O)O

Key:
[1] = system: influenza virus A/Puerto Rico/8/34 (H1N1); type: cell-based
[2] = system: influenza virus A/Puerto Rico/8/34 (H1N1); design: species or system BALB/cA Jcl [SPF] mice; conditions: mouse
[3] = system: influenza virus A/Nagasaki/HA-58/2009 (H1N1); type: cell-based
[4] = system: influenza virus A/Duck/Pennsylvania/84 (H5N2); type: cell-based

CCCCCCCCCC(=O)NCCNC(=O)[C@@H]1CSCC(=O)N[C@@H](Cc2c[nH]c3ccccc23)C(=O)N[C@@H]([C@@H](C)O)C(=O)N(C)CC(=O)N[C@@H](CC(=O)O)C(=O)N(C)[C@@H](Cc2ccccc2)C(=O)N(C)[C@@H](Cc2ccccc2)C(=O)N[C@@H](C)C(=O)N(C)[C@@H](C)C(=O)N[C@@H](Cc2cnc[nH]2)C(=O)N[C@@H](Cc2ccc(O)cc2)C(=O)N[C@@H]([C@@H](C)O)C(=O)N[C@@H](C(C)C)C(=O)N2C[C@H](O)C[C@H]2C(=O)N[C@@H](C)C(=O)N1 [HA152] ({CH2CO}-WT[Sar]D[NMeF][NMeF]A[NMeA]HYTV[Hyp]AC-{Ethylenediamine-Decanoyl}; thioether N-15)
inhibition of cell death in low concentration range [1]: remarkable inhibition of cell death
in vivo anti-virus activity compared to peramivir [2]: comparable or superior to peramivir
survival rate ([2]; in vivo, iv): 60%
inhibition of cell death in low concentration range [3]: remarkable inhibition of cell death
inhibition of cell death in low concentration range [4]: remarkable inhibition of cell death
